Like-named read-outs stand apart in the source and are kept apart here.
Assays:
[1] = test system: human fibroblastoid line M1 cells; conditions: M1 cells preincubated overnight with 50 μg/ml synthetic pentapeptide
Excerpt: To further determine the signaling pathways involved in DNA repair induction, the inventors used the Trevigen CometAssay™ kit (Cat. No. 4250-50-K). The CometAssay is a single-cell gel electrophoresis method that can measure a variety of types of DNA damage, and repair of damage, in individual cells. The assay is based on the alkaline lysis of labile DNA at sites of damage. The unwound, relaxed DNA is able to migrate out of the cell during electrophoresis and can be visualized by SYBR Green staining.
To quantify DNA damage, cells were collected and three parallel samples were processed (a negative control, a DNA damage control (H2O2) and a sample subjected to H2O2 following exposure to various modulators of the cAMP signaling pathway). Cells are then washed in PBS. The washed cells are combined with molten low-melting agarose (Trevigen Cat. No. 4250-50-02) and transferred to a CometSlide™ (Trevigen Cat. No. 4250-100-03). The slides are immersed in lysis buffer for 30 min, on ice, in the dark. The slides are then treated with alkali buffer for 20 to 60 min at room temperature in the dark. The slides are then electrophoresed in buffer for 10 min at 20 volts, then fixed in methanol and ethanol. The slides are then stained with SYBR green (Trevigen Cat. No. 4250-50-05) solution and fluorescently imaged with a Diagnostic Instruments digitized camera, mounted on a Nikon Eclipse E400 microscope. Scion Image software is used to quantitate the comet tail intensity. Each data point is derived from tail fluorescent intensity determination in 50–100 individual cells. Data is presented as % DNA repair (the percent decrement in tail fluorescence intensity in agonist or antagonist-treated cells, relative to the intensity recorded in cells treated with H2O2 only)±SEM. (R.U.s)
To directly examine that possibility, cells were incubated overnight with synthetic peptides corresponding to the region contained within amino acids 65–79 and their ability to mount DNA repair activity in response to cAMP-elevating agents was determined. M1 cells were preincubated overnight with 50 μg/ml of synthetic peptides corresponding to the region surrounding the third allelic hypervariable region (aa 65–79) of each of the following DRβ chains: *0401 (65–79*0401) [SEQ ID NO: 5], *0402 (65–79*0402) [SEQ ID NO: 7], *0403 (65–79*0403) [SEQ ID NO: 9] or *0404(65–79*0404) [SEQ ID NO: 10]. At the end of the preincubation, cells were collected, washed and 2CA-induced DNA repair was determined as above. Table 3 (above) lists the different third allelic hypervariable region peptides used in the entire study disclosed here.
A modified method as described previously by Auger et al. [Nature Med 2:306–310 1996] was used. Briefly, cyanogen bromide activated Speharose 4B (1.5 ml) was washed with 1 mM HCl and incubated with peptides in 0.1 M NaHCO3 and 0.5 M NaCl (pH 8) buffer overnight at 4° C. For each peptide, 5 mg was used per milliliter of Sepharose. Free Sepharose groups were blocked with 0.2 M glycine (pH 8) for 2 hours at room temperature. Columns were washed at 4° C. with the following buffers: 0.1 M NaHCO3, 0.5 M NaCl (pH 8) buffer, then 0.5 M CH3COONa (pH 4) buffer and finally PBS at pH 7.5. M1 cells were plated at a density of 0.5×10^6 cells per well (6 well plate) in 10% FBS DMEM medium until 70–80% confluence. Prior to incubation with peptides, cultures were changed to serum-free DMEM medium, then evenly overlaid with 50 μg bead conjugated peptides, and incubated for the indicated period. Soluble peptides were added overnight to M1 cells at a concentration of 50 μg/ml.

[2] = biological target: T1, calreticulin (Homo sapiens, UniProt P27797); experiment: Competitive inhibition of shared epitope peptide binding to calreticulin (Biacore); design: GST (cleaved yes); made in house; host or cells: E. coli (strain provided by Dr. Michalak)
T1 sequence (P27797 18-417): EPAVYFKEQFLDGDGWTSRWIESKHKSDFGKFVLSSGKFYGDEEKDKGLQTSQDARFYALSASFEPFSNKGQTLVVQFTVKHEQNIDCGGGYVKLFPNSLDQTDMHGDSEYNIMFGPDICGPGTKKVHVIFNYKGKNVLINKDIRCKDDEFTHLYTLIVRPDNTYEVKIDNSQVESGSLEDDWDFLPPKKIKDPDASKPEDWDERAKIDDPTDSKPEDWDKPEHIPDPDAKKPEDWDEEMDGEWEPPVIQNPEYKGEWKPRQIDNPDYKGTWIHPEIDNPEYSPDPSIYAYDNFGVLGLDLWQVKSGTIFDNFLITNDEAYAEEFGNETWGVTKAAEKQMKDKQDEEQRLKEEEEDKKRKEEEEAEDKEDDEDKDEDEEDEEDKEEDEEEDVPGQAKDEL
Procedure: Prior to use, biosensor chips CM5 were docked into a Biacore® 2000 and preconditioned in water at 100 μl/min by applying two consecutive 20-μl pulses of 50 mM NaOH, then 10 mM HCl, and finally 0.1% SDS. Calreticulin was immobilized on CM5 surface by standard primary amine coupling [Lofas S et al. Biosensors & Bioelectronics, 10: 813–822, (1995), Johnsson B et al. J Mol Recognit., 8: 125–131, (1995), Karlsson R et al. J. Immunol. Methods, 200:121–133. (1997)]. Immobilizations were conducted at 25° C. in HBS-EP (10 mM HEPES, pH7.4, 150 mM NaCl, 1 mM EDTA, 0.005% Surfactant P-20), with a flow of 10 μl/min. The CM5 surface was activated by 7 min injection of 200 mM EDC/50 mM NHS to prepare a high-capacity surface, with manual injection of 100 μg/ml calreticulin until 5500 RU level was approached. Then 100 μl of 1M ethanolamine was used to block remaining activated group.
Calreticulin and peptide binding were performed at 25° C. in binding buffer (10 mM HEPES, pH8.0, 50 mM KCl, 0.5 mM CaCl2, 1% Triton-X100), with a flow rate of 10 μl/min. Peptides in the analyte ranged in concentration from 25–180 μM. Binding assays were repeated at least 3 times. Kinetic analysis was performed using Kinetic separate ka/kd fitting in BIA evaluation 3.0 software.
In order to determine whether DKCLA [SEQ ID NO: 16] and shared epitope-expressing peptides compete for the same binding site on calreticulin, competitive binding studies were performed in which the calreticulin binding activity of 14-mer shared epitope-expressing peptides was determined in the presence or absence of different pentapeptides. […] Thus, a Q70D substitution produces a shared epitope-antagonistic effect.

Substance | Inhibition of cAMP-dependent (2CA-induced) DNA repair induction / genoprotective pathway by pentapeptide [1] | Inhibition of cAMP-dependent (2CA-induced) DNA repair induction / genoprotective pathway by pentapeptide ([1]; listed as #7) | Block of 65–78*0401 binding to calreticulin ([2]; 14-mer peptide 65–78*0401) | Block of 65–78*0404 binding to calreticulin ([2]; 14-mer peptide 65–78*0404) | IC50, inhibition of 65–78*0401 binding to calreticulin ([2]; dose response analysis, FIG. 16C) | IC50, inhibition of 65–78*0404 binding to calreticulin ([2]; dose response analysis, FIG. 16D) | Inhibition of 65–79*0401 binding to calreticulin ([2]; Biacore assay, control experiment under identical conditions)
DKCLA [Asp Lys Cys Leu Ala] | biologically inactive | failed to do so | effectively and specifically blocked binding | effectively and specifically blocked binding | low-υM range | low-υM range | –
Gln Lys Arg Ala Glu (QKRAE) [pentapeptide with A74E substitution] | failed to do so | – | – | – | – | – | did not inhibit 65–79*0401 binding to calreticulin
